According to patent publication US20250136578A1 (Kolm Therapeutics Inc., priority 2023, published 2025):

How the values were obtained:
VCaP cells = assay: VCaP growth inhibition assay (CTG); format: cell-based; details: Homo sapiens, 216 h, 30 pM R1881, 9 days
Summary of the method: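 Growth was measured by CTG luminescence after a 9-day exposure of VCaP cells to compound (final 10 fM–100 nM, fivefold steps) in the presence of 30 pM final R1881, in phenol red-free DMEM/5% CSS. IC50 values were derived by nonlinear 4-parameter regression of RLU against concentration.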

AR / CBP ternary complex = AR / CBP ternary complex (Homo sapiens, UniProt P10275+Q92793); assay: Ternary complex formation assay (sandwich ELISA, AR capture, CBP antibody detection) in VCaP cell lysates; format: cell-based; details: treated 1.5 hours, rabbit CBP or p300 antibody detection, average, read-out: Average Ternary Complex
AR / CBP ternary complex, sequence (P10275 whole entry): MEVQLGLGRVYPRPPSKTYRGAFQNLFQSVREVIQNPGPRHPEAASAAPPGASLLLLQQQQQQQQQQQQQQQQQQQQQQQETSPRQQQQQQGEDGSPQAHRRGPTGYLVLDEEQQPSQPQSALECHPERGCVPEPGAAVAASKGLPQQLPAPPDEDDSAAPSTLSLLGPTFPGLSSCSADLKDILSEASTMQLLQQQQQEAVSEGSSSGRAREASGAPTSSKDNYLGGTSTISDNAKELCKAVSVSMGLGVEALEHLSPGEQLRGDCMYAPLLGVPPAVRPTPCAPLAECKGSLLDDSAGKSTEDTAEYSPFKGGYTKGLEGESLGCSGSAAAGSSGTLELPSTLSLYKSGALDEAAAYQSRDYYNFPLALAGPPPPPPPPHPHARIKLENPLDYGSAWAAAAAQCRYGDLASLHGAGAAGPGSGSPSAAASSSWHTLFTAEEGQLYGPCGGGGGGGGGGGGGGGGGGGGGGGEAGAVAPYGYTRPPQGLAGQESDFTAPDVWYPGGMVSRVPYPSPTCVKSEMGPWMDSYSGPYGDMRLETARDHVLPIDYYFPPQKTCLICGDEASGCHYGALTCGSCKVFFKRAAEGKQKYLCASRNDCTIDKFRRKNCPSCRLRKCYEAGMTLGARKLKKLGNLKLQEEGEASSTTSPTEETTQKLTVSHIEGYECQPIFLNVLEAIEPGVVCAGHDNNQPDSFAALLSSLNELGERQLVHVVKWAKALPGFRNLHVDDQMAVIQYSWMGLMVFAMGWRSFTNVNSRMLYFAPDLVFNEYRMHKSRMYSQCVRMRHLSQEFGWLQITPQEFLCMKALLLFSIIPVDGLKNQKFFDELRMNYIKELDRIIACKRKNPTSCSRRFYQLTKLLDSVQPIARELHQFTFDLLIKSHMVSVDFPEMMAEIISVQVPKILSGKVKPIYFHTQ
AR / CBP ternary complex, sequence (Q92793 2-2442): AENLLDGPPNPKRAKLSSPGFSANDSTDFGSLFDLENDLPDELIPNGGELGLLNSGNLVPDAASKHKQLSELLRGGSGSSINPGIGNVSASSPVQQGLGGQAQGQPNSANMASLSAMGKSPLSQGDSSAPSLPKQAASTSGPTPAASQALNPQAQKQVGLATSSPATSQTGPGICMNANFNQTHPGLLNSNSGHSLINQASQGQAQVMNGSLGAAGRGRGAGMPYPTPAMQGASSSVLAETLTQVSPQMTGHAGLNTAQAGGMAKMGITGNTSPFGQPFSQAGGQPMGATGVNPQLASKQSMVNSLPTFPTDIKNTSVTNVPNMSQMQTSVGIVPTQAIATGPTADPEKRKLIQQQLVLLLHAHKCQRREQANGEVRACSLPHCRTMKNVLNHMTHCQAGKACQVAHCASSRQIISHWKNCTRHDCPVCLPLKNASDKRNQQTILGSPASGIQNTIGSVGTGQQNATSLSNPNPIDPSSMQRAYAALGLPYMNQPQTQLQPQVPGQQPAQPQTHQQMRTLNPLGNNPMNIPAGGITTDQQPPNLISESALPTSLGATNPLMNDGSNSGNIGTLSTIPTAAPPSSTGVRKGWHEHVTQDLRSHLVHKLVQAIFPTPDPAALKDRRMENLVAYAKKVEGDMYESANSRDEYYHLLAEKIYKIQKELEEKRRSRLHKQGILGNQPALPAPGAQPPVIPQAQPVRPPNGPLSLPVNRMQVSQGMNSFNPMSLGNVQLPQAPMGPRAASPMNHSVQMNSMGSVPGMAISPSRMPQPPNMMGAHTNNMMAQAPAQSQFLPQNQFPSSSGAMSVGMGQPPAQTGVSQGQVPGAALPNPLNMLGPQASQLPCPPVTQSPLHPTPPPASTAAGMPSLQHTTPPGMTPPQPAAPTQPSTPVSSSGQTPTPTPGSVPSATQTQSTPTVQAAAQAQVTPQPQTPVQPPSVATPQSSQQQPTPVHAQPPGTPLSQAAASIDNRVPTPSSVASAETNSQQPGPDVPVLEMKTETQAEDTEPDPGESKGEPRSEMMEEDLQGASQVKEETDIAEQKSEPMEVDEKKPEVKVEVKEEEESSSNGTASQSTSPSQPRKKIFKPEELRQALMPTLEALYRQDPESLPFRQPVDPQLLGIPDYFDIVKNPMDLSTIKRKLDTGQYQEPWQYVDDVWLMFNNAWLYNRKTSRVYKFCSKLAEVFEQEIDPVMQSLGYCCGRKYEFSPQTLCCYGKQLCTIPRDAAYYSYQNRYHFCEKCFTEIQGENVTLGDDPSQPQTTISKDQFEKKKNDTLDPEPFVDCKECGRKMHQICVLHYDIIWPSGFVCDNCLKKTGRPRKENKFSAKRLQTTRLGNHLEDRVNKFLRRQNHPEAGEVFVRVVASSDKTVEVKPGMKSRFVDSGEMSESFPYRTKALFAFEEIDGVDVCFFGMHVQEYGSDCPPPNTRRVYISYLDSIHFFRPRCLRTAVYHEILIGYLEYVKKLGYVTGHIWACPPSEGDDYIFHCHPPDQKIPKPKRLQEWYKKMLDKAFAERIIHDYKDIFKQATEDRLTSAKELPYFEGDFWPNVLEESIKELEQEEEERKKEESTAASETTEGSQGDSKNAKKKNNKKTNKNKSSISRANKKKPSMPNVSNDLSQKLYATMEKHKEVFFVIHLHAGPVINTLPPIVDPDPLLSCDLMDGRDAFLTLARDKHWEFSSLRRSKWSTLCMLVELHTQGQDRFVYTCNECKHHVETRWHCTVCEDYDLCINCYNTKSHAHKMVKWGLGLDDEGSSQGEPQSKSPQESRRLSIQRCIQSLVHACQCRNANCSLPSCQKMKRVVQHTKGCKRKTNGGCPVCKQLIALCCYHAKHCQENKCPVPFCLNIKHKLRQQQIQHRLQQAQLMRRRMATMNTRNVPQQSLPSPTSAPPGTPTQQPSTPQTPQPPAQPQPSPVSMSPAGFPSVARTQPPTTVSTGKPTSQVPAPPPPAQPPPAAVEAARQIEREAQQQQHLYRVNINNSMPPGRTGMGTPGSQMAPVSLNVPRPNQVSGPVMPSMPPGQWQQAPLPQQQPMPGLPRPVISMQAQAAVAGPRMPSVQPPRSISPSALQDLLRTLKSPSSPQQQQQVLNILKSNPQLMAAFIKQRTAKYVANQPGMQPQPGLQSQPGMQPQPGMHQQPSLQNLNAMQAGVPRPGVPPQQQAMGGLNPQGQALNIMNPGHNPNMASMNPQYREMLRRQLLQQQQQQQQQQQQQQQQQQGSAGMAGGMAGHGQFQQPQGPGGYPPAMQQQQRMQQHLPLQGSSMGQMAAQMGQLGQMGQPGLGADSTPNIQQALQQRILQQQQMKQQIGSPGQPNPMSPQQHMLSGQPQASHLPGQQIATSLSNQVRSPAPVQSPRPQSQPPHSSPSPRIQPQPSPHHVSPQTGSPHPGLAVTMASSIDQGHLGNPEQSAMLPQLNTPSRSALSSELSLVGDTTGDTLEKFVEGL
Summary of the method: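 Sandwich ELISA: plates were coated with anti-AR antibody (AR441) and given lysates of VCaP cells treated 1.5 h with bifunctional compound in charcoal-stripped serum. Co-captured CBP or p300 was probed with rabbit mAbs and HRP secondary. Chemifluorescent signal (ex 570/em 585) was read at 0, 5 and 15 min.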

IC50 (VCaP cells) [nM]	EC50 (AR / CBP ternary complex) [nM]	Compound
0.1 to 1	> 100	CC(=O)N1CCc2c(c(N3CCCc4cc(-c5cnn(C)c5)c(C(F)F)cc43)nn2CC2CC3(CCN(c4ccc(C(=O)N[C@H]5CC[C@H](Oc6ccc(C#N)c(Cl)c6)CC5)nn4)CC3)C2)C1 [Compound 130, 6-[2-[[5-acetyl-3-[7-(difluoromethyl)-6-(1-methylpyrazol-4-yl)-3,4-dihydro-2H-quinolin-1-yl]-6,7-dihydro-4H-pyrazolo[4,3-c]pyridin-1-yl]methyl]-7-azaspiro[3.5]nonan-7-yl]-N-[4-(3-chloro-4-cyano-phenoxy)cyclohexyl]pyridazine-3-carboxamide]
≤ 0.1	< 1	COc1cc(O[C@H]2CC[C@H](NC(=O)c3ccc(N4CCC(CN5CCC(n6nc(N7CCCc8cc(-c9cnn(C)c9)c(C(F)F)cc87)c7c6CCN(C(C)=O)C7)CC5)CC4)cc3)CC2)ccc1C#N [Compound 140, 4-[4-[[4-[5-acetyl-3-[7-(difluoromethyl)-6-(1-methylpyrazol-4-yl)-3,4-dihydro-2H-quinolin-1-yl]-6,7-dihydro-4H-pyrazolo[4,3-c]pyridin-1-yl]-1-piperidyl]methyl]-1-piperidyl]-N-[4-(4-cyano-3-methoxy-phenoxy)cyclohexyl]benzamide]
≤ 0.1	< 1	CC(=O)N1CCc2c(c(N3CCCc4cc(-c5cnn(C)c5)c(C(F)F)cc43)nn2[C@@H]2CCN(CC3CCN(c4ccc(C(=O)N[C@H]5CC[C@H](Oc6ccc(C#N)c(Cl)c6)CC5)nn4)CC3)C[C@H]2F)C1 [Compound 141, 6-[4-[[(3R,4R)-4-[5-acetyl-3-[7-(difluoromethyl)-6-(1-methylpyrazol-4-yl)-3,4-dihydro-2H-quinolin-1-yl]-6,7-dihydro-4H-pyrazolo[4,3-c]pyridin-1-yl]-3-fluoro-1-piperidyl]methyl]-1-piperidyl]-N-[4-(3-chloro-4-cyano-phenoxy)cyclohexyl]pyridazine-3-carboxamide]

More lines, now with the values behind:

Compound	IC50 (VCaP cells) [nM]	EC50 (AR / CBP ternary complex) [nM]
Cc1cc2c(N3CCCc4cc(-c5cnn(C)c5)c(C(F)F)cc43)cc(N3CCN(CC4CCN(c5ccc(C(=O)N[C@H]6CC[C@H](Oc7ccc(C#N)c(Cl)c7)CC6)nn5)CC4)CC3)cc2n(C)c1=O [Compound 135, N-[4-(3-chloro-4-cyano-phenoxy)cyclohexyl]-6-[4-[[4-[5-[7-(difluoromethyl)-6-(1-methylpyrazol-4-yl)-3,4-dihydro-2H-quinolin-1-yl]-1,3-dimethyl-2-oxo-7-quinolyl]piperazin-1-yl]methyl]-1-piperidyl]pyridazine-3-carboxamide]	0.1 to 1	1 to 10
Cc1cc2c(N3CCN(C)c4cc(C5CC5)ncc43)cc(N3CCN(CC4CCN(c5ccc(C(=O)N[C@H]6CC[C@H](Oc7ccc(C#N)c(Cl)c7)CC6)nn5)CC4)CC3)cc2n(C)c1=O [Compound 138, N-[4-(3-chloro-4-cyano-phenoxy)cyclohexyl]-6-[4-[[4-[5-(7-cyclopropyl-1-methyl-2,3-dihydropyrido[3,4-b]pyrazin-4-yl)-1,3-dimethyl-2-oxo-7-quinolyl]piperazin-1-yl]methyl]-1-piperidyl]pyridazine-3-carboxamide]	1 to 100	1 to 10
CC(=O)N1CCc2c(c(N3CCCc4cc(-c5cnn(C)c5)c(C(F)F)cc43)nn2C2CCN(CC3CCN(c4ccc(C(=O)N[C@H]5CC[C@H](Oc6ccc(C#N)c(Cl)c6)CC5)cc4)CC3)CC2)C1 [Compound 139, 4-[4-[[4-[5-acetyl-3-[7-(difluoromethyl)-6-(1-methylpyrazol-4-yl)-3,4-dihydro-2H-quinolin-1-yl]-6,7-dihydro-4H-pyrazolo[4,3-c]pyridin-1-yl]-1-piperidyl]methyl]-1-piperidyl]-N-[4-(3-chloro-4-cyano-phenoxy)cyclohexyl] benzamide]	≤ 0.1	< 1
